Assays:
EGFR = biological target: T1, EGFR (Homo sapiens, UniProt P00533); experiment: Western blot degradation of EGFR; format: cell-based; conditions: H1975 Cell; 24 hours
T1 construct: L858R/T790M in cis, heterozygous with wild type), Western blot
Procedure: Conventional Western blot assay was performed to evaluate the effects of the compounds of the present disclosure on the expression of target proteins in cells.
(1) Cell Seeding and Protein Harvesting: The selected cells were processed according to the cell seeding procedure and protein harvesting procedure in Table II-2.
(2) To the collected supernatant, 5×SDS sample loading buffer was added, followed by denaturation at 95 °C for 5 minutes. The denatured samples were then separated by SDS-PAGE electrophoresis on a polyacrylamide gel. Proteins were transferred to a nitrocellulose membrane (0.45 μm NC membrane), blocked with blocking buffer at room temperature for 1 hour, and subjected to antibody incubation and development procedures according to the antibody manufacturer's instructions (Cell Signaling Technology).
Half-Maximal Degradation Concentration value (the drug concentration required for degrading proteins by 50%, abbreviated as DC50) reads method: comparing the grayscale values of Western blot bands from drug-treated samples with those from blank DMSO-treated controls, and identifying the drug concentration range at which the grayscale value is half that of the DMSO-treated control bands.
DC50 values can be calculated using ImageJ software to measure grayscale values of Western blot bands from drug-treated samples. The concentration-response curve is fitted to estimate the drug concentration corresponding to half the grayscale value.
Target protein remaining (%) refers to the percentage of target protein remaining in cells after treatment with protein degrader compounds.
Calculation method for target protein remaining (%): Use ImageJ software to measure grayscale values of Western blot bands from drug (protein degrader)-treated samples. The grayscale value of drug-treated bands is divided by that of internal control protein bands, and the resulting quotient is normalized to obtain the relative percentage of remaining target protein after protein degrader treatment.
Target protein degradation rate (%)=1−target protein remaining (%).

[1] = system: Human neuroblastoma cell line (SK-N-AS); experiment: Inhibition of SK-N-AS cell proliferation (CellTiter luminescent viability); format: cell-based; conditions: Table II2, EZH2 inhibitor-based, 96 hours; for inhibition at 0.01 µM: 10 nM, read-out: Inhibition Rate at 10 nM (%); for inhibition at 0.5 µM: 500 nM, read-out: Inhibition Rate at 500 nM (%)
Procedure: The tumor cells used herein were cultured in a cell culture medium listed in table 3 at 37 °C in an incubator with 5% CO2. Prior to experimentation, all cell lines used were correctly identified by STR profiling, and tested negative for mycoplasma contamination using a mycoplasma detection kit through routine screenings.
The IC50 values of the compounds of the present disclosure (including the compounds in Table 1, Table 2, and Examples 1-468) were determined using the CellTiter-Meiluncell Luminescent Cell Viability Assay Kit from Dalian Meilun Biotech Co., Ltd. The detailed procedure is as follows: Tumor cells were seeded in 96-well cell culture plates at the densities specified in Table 4. On the following day, the test compounds of the present disclosure were subjected to serial dilution. The dilution can be performed according to one of the following two methods: • (1) The first dilution method: The test compounds of the present disclosure (including the compounds in Table 1, Table 2, and Examples 1-468) were subjected to 5-fold serial dilutions starting from a highest concentration of 2000 μM, resulting in a total of 9 concentrations from high to low (2000, 400, 80, 16, 3.2, 0.64, 0.128, 0.0256, 0.00512 μM). Subsequently, 0.5 μL of the test compound dilution was transferred into the 96-well plate containing the cells, with each well containing 100 μL of cell culture medium. […] Into the 96-well plate, the diluted test compounds and corresponding detection reagents were added, resulting in final test compound concentrations of 500 nM and 10 nM, respectively. The experimental procedure is described below using the diluted 2 μM test compound as an example.
0.5 μL of the aforementioned diluted compound of the present disclosure (including the compounds in Table 1, Table 2, and Examples 1-468) was added to the seeded cells in 100 μL of medium, yielding a final test compound concentration of 10 nM. After the cells were treated with the compounds of the present disclosure for a specified period, the cell viability assay reagent was added to the culture medium according to the kit's instructions to determine cell viability. […] All controls were treated using the same procedure as the compounds of the present disclosure. The growth inhibition curves for the compounds of the present disclosure were plotted using Prism GraphPad software, and the IC50 values were calculated therefrom.

T1 sequence (P00533 25-1210): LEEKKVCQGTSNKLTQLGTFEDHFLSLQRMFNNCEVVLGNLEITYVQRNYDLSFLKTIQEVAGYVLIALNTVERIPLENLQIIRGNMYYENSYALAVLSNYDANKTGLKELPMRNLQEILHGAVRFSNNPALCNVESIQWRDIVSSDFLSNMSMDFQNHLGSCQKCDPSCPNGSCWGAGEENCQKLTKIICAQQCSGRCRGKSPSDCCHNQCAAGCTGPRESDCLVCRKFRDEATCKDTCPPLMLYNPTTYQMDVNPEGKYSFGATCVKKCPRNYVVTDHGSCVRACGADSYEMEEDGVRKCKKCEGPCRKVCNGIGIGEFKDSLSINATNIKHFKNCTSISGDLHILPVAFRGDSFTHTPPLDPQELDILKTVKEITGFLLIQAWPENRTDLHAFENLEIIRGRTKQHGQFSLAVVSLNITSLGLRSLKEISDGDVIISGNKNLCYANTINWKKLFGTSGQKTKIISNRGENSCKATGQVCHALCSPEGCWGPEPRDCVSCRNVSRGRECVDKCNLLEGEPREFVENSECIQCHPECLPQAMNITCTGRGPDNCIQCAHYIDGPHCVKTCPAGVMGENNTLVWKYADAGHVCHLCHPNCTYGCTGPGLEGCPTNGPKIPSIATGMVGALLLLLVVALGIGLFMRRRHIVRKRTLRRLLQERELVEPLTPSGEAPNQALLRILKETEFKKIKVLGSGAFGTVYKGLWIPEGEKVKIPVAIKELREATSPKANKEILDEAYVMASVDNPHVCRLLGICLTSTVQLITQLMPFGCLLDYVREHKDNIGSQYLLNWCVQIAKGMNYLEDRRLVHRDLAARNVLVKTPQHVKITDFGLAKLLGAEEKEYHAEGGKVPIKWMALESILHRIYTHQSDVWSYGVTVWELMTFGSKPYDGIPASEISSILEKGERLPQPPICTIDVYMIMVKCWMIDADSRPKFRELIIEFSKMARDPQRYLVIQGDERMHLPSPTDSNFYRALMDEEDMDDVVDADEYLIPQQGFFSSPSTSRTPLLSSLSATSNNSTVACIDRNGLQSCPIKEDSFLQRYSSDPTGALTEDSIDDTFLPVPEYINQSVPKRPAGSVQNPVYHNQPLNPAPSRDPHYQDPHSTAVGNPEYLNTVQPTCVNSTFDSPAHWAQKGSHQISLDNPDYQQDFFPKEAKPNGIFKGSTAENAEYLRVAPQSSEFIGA
T1 sequence (Q96SW2 whole entry partner): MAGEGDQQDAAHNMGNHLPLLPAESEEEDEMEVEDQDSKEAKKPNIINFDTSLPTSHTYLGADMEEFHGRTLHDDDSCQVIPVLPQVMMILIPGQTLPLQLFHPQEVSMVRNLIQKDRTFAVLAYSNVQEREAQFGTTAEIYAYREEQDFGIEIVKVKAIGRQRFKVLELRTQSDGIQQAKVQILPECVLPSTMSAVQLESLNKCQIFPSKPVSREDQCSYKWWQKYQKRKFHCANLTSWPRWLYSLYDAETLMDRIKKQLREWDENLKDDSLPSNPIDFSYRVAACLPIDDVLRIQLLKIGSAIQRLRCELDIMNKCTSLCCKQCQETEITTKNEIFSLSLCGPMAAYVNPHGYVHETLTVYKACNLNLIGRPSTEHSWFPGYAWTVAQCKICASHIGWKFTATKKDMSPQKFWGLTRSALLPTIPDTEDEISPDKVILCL

Row | SMILES | Degradation of substrate protein EGFR (substrate protein remaining %) (EGFR) | inhibition at 0.01 µM [1] | inhibition at 0.5 µM [1]
1 | O=C1CCN(N2Cc3cc(CN4CCN(C5CCN(c6ccc(Nc7ncc8nc(Nc9ccccc9)n(C9CCCC9)c8n7)cc6)CC5)CC4)ccc3C2=O)C(=O)N1 [GT-05914, 1-(5-((4-(1-(4-((9-cyclopentyl-8-(phenylamino)-9H-purin-2-yl)amino)phenyl)piperidin-4-yl)piperazin-1-yl)methyl)-1-oxoisoindolin-2-yl)dihydropyrimidine-2,4 (1H,3H)-dione] | A (0%≤substrate protein remaining %≤80%) |  | 
2 | CC(C)n1nc(N2CCC(N3CCN(Cc4ccc5c(c4)CN(N4CCC(=O)NC4=O)C5=O)CC3)CC2)c2cnc(Nc3ccnc(-c4cnn(S(=O)(=O)C5CC5)c4)n3)cc21 [GT-06077, 1-(5-((4-(1-(6-((2-(1-(cyclopropylsulfonyl)-1H-pyrazol-4-yl)pyrimidin-4-yl)amino)-1-isopropyl-1H-pyrazolo[4,3-c]pyridin-3-yl)piperidin-4-yl)piperazin-1-yl)methyl)-1-oxoisoindolin-2-yl)dihydropyrimidine-2,4 (1H,3H)-dione] | A (0%≤substrate protein remaining %≤80%) |  | 
3 | CC(C)n1nc(N2CCC(N(C)Cc3ccc4c(c3)CN(N3CCC(=O)NC3=O)C4=O)CC2)c2cnc(Nc3ccnc(-c4cnn(S(=O)(=O)C5CC5)c4)n3)cc21 [GT-06019, 1-(5-(((1-(6-((2-(1-(cyclopropylsulfonyl)-1H-pyrazol-4-yl)pyrimidin-4-yl)amino)-1-isopropyl-1H-pyrazolo[4,3-c]pyridin-3-yl)piperidin-4-yl)(methyl)amino)methyl)-1-oxoisoindolin-2-yl)dihydropyrimidine-2,4 (1H,3H)-dione] | A (0%≤substrate protein remaining %≤80%) |  | 
4 | CN(Cc1ccc2c(c1)C(=O)N(N1CCC(=O)NC1=O)C2=O)C1CCN(c2ccc(Nc3ncc4nc(Nc5ccccc5)n(C5CCCC5)c4n3)cc2)CC1 [GT-07113, 5-(((1-(4-((9-cyclopentyl-8-(phenylamino)-9H-purin-2-yl)amino)phenyl)piperidin-4-yl)(methyl)amino)methyl)-2-(2,4-dioxotetrahydropyrimidin-1(2H)-yl)isoindoline-1,3-dione] | A (0%≤substrate protein remaining %≤80%) |  | 
5 | CCN(c1cc(-c2ccc(N3CCC(N(C)Cc4ccc5c(c4)CN(N4CCC(=O)NC4=O)C5=O)CC3)cc2)cc(C(=O)NCc2c(C)cc(C)[nH]c2=O)c1C)C1CCOCC1 [GT-08512, N-((4,6-dimethyl-2-oxo-1,2-dihydropyridin-3-yl)methyl)-4′-(4-(((2-(2,4-dioxotetrahydropyrimidin-1(2H)-yl)-1-oxoisoindolin-5-yl)methyl)(methyl)amino)piperidin-1-yl)-5-(ethyl(tetrahydro-2H-pyran-4-yl)amino)-4-methyl-[1,1′-biphenyl]-3-carboxamide] |  | 10 to 15% | 20 to 30%
6 | CCN(c1cc(-c2ccc(N3CCN(CC4CCN(c5cccc6c5C(=O)N(N5CCC(=O)NC5=O)C6=O)CC4)CC3)cc2)cc(C(=O)NCc2c(C)cc(C)[nH]c2=O)c1C)C1CCOCC1 [GT-08521, N-((4,6-dimethyl-2-oxo-1,2-dihydropyridin-3-yl)methyl)-4′-(4-((1-(2-(2,4-dioxotetrahydropyrimidin-1(2H)-yl)-1,3-dioxoisoindolin-4-yl)piperidin-4-yl)methyl)piperazin-1-yl)-5-(ethyl(tetrahydro-2H-pyran-4-yl)amino)-4-methyl-[1,1′-biphenyl]-3-carboxamide] |  | 20 to 30% | 30 to 40%
7 | CCCc1cc(C)[nH]c(=O)c1CNC(=O)c1cc(-c2ccc(N3CCN(C(C)C)CC3)nc2)cc2c1cnn2C(C)C [UNC1999, reference compound] |  | 0 to 5% | 0 to 5%

Continued, in another order:

Row | Degradation of substrate protein EGFR (substrate protein remaining %) (EGFR) | SMILES | inhibition at 0.01 µM [1] | inhibition at 0.5 µM [1]
8 | A (0%≤substrate protein remaining %≤80%) | COc1cc(N2CCC(N3CCN(CC4CCN(c5ccc6c(c5)C(=O)N(N5CCC(=O)NC5=O)C6=O)CC4)CC3)CC2)c(C)cc1Nc1ncc(Br)c(Nc2ccc3nccnc3c2P(C)(C)=O)n1 [GT-05997, 5-(4-((4-(1-(4-((5-bromo-4-((5-(dimethylphosphoryl)quinoxalin-6-yl)amino)pyrimidin-2-yl)amino)-5-methoxy-2-methylphenyl)piperidin-4-yl)piperazin-1-yl)methyl)piperidin-1-yl)-2-(2,4-dioxotetrahydropyrimidin-1(2H)-yl)isoindoline-1,3-dione] |  | 
9 | A (0%≤substrate protein remaining %≤80%) | CC(C)n1nc(N2CCN(CC3CCN(c4ccc5c(c4)C(=O)N(N4CCC(=O)NC4=O)C5=O)CC3)CC2)c2cnc(Nc3ccnc(-c4cnn(S(=O)(=O)C5CC5)c4)n3)cc21 [GT-06073, 5-(4-((4-(6-((2-(1-(cyclopropylsulfonyl)-1H-pyrazol-4-yl)pyrimidin-4-yl)amino)-1-isopropyl-1H-pyrazolo[4,3-c]pyridin-3-yl)piperazin-1-yl)methyl)piperidin-1-yl)-2-(2,4-dioxotetrahydropyrimidin-1(2H)-yl)isoindoline-1,3-dione] |  | 
10 | A (0%≤substrate protein remaining %≤80%) | COc1cc(N2CCC(N3CCN(Cc4ccc5c(c4)CN(N4CCC(=O)NC4=O)C5=O)CC3)CC2)c(C)cc1Nc1ncc(Br)c(Nc2ccc3nccnc3c2P(C)(C)=O)n1 [GT-05996, 1-(5-((4-(1-(4-((5-bromo-4-((5-(dimethylphosphoryl)quinoxalin-6-yl)amino)pyrimidin-2-yl)amino)-5-methoxy-2-methylphenyl)piperidin-4-yl)piperazin-1-yl)methyl)-1-oxoisoindolin-2-yl)dihydropyrimidine-2,4 (1H,3H)-dione] |  | 
11 | A (0%≤substrate protein remaining %≤80%) | O=C1CCN(N2C(=O)c3ccc(N4CCC(CN5CCN(C6CCN(c7ccc(Nc8ncc9nc(Nc%10ccccc%10)n(C%10CCCC%10)c9n8)cc7)CC6)CC5)CC4)cc3C2=O)C(=O)N1 [GT-05955, 5-(4-((4-(1-(4-((9-cyclopentyl-8-(phenylamino)-9H-purin-2-yl)amino)phenyl)piperidin-4-yl)piperazin-1-yl)methyl)piperidin-1-yl)-2-(2,4-dioxotetrahydropyrimidin-1(2H)-yl)isoindoline-1,3-dione] |  | 
12 | A (0%≤substrate protein remaining %≤80%) | COc1cc(N2CCN(Cc3ccc4c(c3)CN(N3CCC(=O)NC3=O)C4=O)CC2)c(C)cc1Nc1ncc(Br)c(Nc2ccc3nccnc3c2P(C)(C)=O)n1 [GT-05946, 1-(5-((4-(4-((5-bromo-4-((5-(dimethylphosphoryl)quinoxalin-6-yl)amino)pyrimidin-2-yl)amino)-5-methoxy-2-methylphenyl)piperazin-1-yl)methyl)-1-oxoisoindolin-2-yl)dihydropyrimidine-2,4 (1H,3H)-dione] |  | 
13 | A (0%≤substrate protein remaining %≤80%) | CN(CC1CCN(c2ccc3c(c2)C(=O)N(N2CCC(=O)NC2=O)C3=O)CC1)C1CCN(c2ccc(Nc3ncc4nc(Nc5ccccc5)n(C5CCCC5)c4n3)cc2)CC1 [GT-05843, 5-(4-(((1-(4-((9-cyclopentyl-8-(phenylamino)-9H-purin-2-yl)amino)phenyl)piperidin-4-yl)(methyl)amino)methyl)piperidin-1-yl)-2-(2,4-dioxotetrahydropyrimidin-1(2H)-yl)isoindoline-1,3-dione] |  | 
